Data from patent US11109593B2, “Isoxazolin-5-one derivative and herbicide containing same as active ingredient” (HOKKO CHEMICAL INDUSTRY CO., LTD., priority 2017, dated 2021).

Key:
Assay type in all cases: in vivo
[1] = system: Scirpus juncoides; assay: Test Example 2: herbicidal effect test by treatment during growing period in paddy rice cultivation (seven days after seeding); conditions: for Herbicidal rate (%) Scirpus juncoides: 120 g/10a active ingredient, assessed 14 days after treatment, dry weight vs untreated area
Procedure: (§1) This test was conducted in a double system per one agent solution concentration area, and the herbicidal rates (%) were determined by the following equation (Math. 1) on 14 days after the treatment with the agents. Herbicidal Rate (%)={1-(Average Dry Weight (g) of Plant of Treated Area)/(Average Dry Weight (g) of Plant of Untreated Area)}×100 [Math. 1]
(§2) Herbicidal Effect Test by Treatment During Growing Period in Paddy Rice Cultivation
(§3) Wagner pots with an area of 1/10000 ares were filled with a paddy soil, and after adding water, a compound fertilizer (N:P:K=17:17:17) was mixed, followed by soil puddling. Then, Echinochloa crus-galli, broad leaf weeds (Lindernia pyxidaria and Monochoria vaginalis) and Scirpus juncoides, 30 seeds each, were sown in a depth of 0 to 1 cm. Water was poured immediately after seeding, and the water depth was kept at about 3 cm. The subsequent management was conducted in a glass greenhouse. Emulsions prepared using the compounds in Table 4 below according to Formulation Example 5 were diluted with water seven days after seeding, and a certain amount of the water-diluted agent solutions were dropped. The converted amount of the applied active ingredient corresponded to 120 g per 10 ares. The test was conducted in a double system per one agent solution concentration area, and the herbicidal rates (%) were determined by the equation (Math. 1) on 14 days after the treatment with the agents. […] The compound numbers in Table 4 are the same as those in Table 1 and Table 2 above.

[2] = system: Echinochloa crus-galli; assay: as above; conditions: for Herbicidal rate (%) Echinochloa crus-galli: 120 g/10a active ingredient, assessed 14 days after treatment, dry weight vs untreated area
Procedure: as §1, §2, §3

[3] = system: broad leaf weeds (Lindernia pyxidaria and Monochoria vaginalis); assay: as above; conditions: for Herbicidal rate (%) Lindernia pyxidaria / Herbicidal rate (%) Monochoria vaginalis: 120 g/10a active ingredient, assessed 14 days after treatment, dry weight vs untreated area
Procedure: as §1, §2, §3

[4] = system: Scirpus juncoides; assay: Test Example 1: herbicidal effect test by treatment of rice paddy soil (immediately after seeding)
Procedure: (§4) Herbicidal Effect Test by Treatment of Rice Paddy Soil
(§5) Wagner pots with an area of 1/10000 ares were filled with a paddy soil, and after adding water, a compound fertilizer (N:P:K=17:17:17) was added, followed by soil puddling. Then, Echinochloa crus-galli, broad leaf weeds (Lindernia pyxidaria and Monochoria vaginalis) and Scirpus juncoides, 30 seeds each, were sown in a depth of 0 to 1 cm. Water was poured immediately after seeding, and the water depth was kept at about 3 cm. The subsequent management was conducted in a glass greenhouse. Immediately after that, emulsions prepared using the compounds in Table 3 below according to Formulation Example 5 were diluted with water, and a certain amount of the water-diluted agent solutions were dropped. The converted amount of the applied active ingredient corresponded to 120 g per 10 ares.
as §1
(§6) The compound numbers in Table 3 are the same as those in Table 1 and Table 2 above.

[5] = system: Echinochloa crus-galli; assay: as above
Procedure: as §4, §5, §1, §6

[6] = system: broad leaf weeds (Lindernia pyxidaria and Monochoria vaginalis); assay: as above
Procedure: as §4, §5, §1, §6

[7] = 120 g/10a active ingredient, dry weight vs untreated area, 14 days after treatment
[8] = Lindernia pyxidaria, 120 g/10a active ingredient, dry weight vs untreated area, 14 days after treatment
[9] = Monochoria vaginalis, 120 g/10a active ingredient, dry weight vs untreated area, 14 days after treatment
[10] = 120 g/10a, rated 14 days after treatment, paddy soil pots
[11] = 120 g/10a active ingredient, 14 days after treatment, dry weight vs untreated area

| Compound | Herbicidal rate (%) Scirpus juncoides [1] | Herbicidal rate (%) Echinochloa crus-galli [2] | Herbicidal rate (%) Lindernia pyxidaria ([3]; Lindernia pyxidaria) | Herbicidal rate (%) Monochoria vaginalis ([3]; Monochoria vaginalis) | Herbicidal rate (%) Scirpus juncoides [4, 7] | Herbicidal rate (%) Echinochloa crus-galli [5, 7] | Herbicidal rate (%) Lindernia pyxidaria [6, 8] | Herbicidal rate (%) Monochoria vaginalis [6, 9] | herbicidal rate, Scirpus juncoides [1, 10] | herbicidal rate, Echinochloa crus-galli [2, 10] | herbicidal rate, Lindernia pyxidaria ([3]; Lindernia pyxidaria, 120 g/10a, rated 14 days after treatment, paddy soil pots) | herbicidal rate, Monochoria vaginalis ([3]; Monochoria vaginalis, 120 g/10a, rated 14 days after treatment, paddy soil pots) | Herbicidal rate (%) Scirpus juncoides [4, 11] | Herbicidal rate (%) Echinochloa crus-galli [5, 11] | Herbicidal rate (%) Lindernia pyxidaria ([6]; Lindernia pyxidaria, 120 g/10a active ingredient, 14 days after treatment, dry weight vs untreated area) | Herbicidal rate (%) Monochoria vaginalis ([6]; Monochoria vaginalis, 120 g/10a active ingredient, 14 days after treatment, dry weight vs untreated area) |
| --- | --- | --- | --- | --- | --- | --- | --- | --- | --- | --- | --- | --- | --- | --- | --- | --- |
| CCCCCCCCn1oc(=O)c(Cc2ccccc2N(S(=O)(=O)C(F)(F)F)S(=O)(=O)C(F)(F)F)c1C [Compound 1-981] | 40% | 90% | 50% | 40% | 70% | 80% | 60% | 50% |  |  |  |  |  |  |  |  |
| CCN(c1ccccc1Cc1c(C)n(CC(C)C)oc1=O)S(=O)(=O)C(F)(F)F [Compound 1-263] | 90% | 90% | 40% | 60% | 60% | 50% | 80% | 50% |  |  |  |  |  |  |  |  |
| Cc1c(Cc2ccccc2N(S(=O)(=O)C(F)(F)F)S(=O)(=O)C(F)(F)F)c(=O)on1C(C)c1ccccc1Cl (stereo not shown) [Compound 1-1032] | 40% | 40% | 40% | 40% | 90% | 80% | 90% | 90% |  |  |  |  |  |  |  |  |
| Cc1c(Cc2ccccc2N(S(=O)(=O)C(F)(F)F)S(=O)(=O)C(F)(F)F)c(=O)on1CC1CC1 [Compound 1-991] | 90% | 90% | 70% | 80% | 90% | 90% | 100% | 100% |  |  |  |  |  |  |  |  |
| COc1ccc(Cn2oc(=O)c(Cc3ccccc3NS(=O)(=O)C(F)(F)F)c2C)cc1 [Compound 1-195] | 80% | 80% | 40% | 40% | 90% | 90% | 70% | 60% |  |  |  |  |  |  |  |  |
| Cc1c(Cc2ccccc2NS(=O)(=O)C(F)(F)F)c(=O)on1Cc1ccc(C(C)(C)C)cc1 [Compound 1-192] | 60% | 40% | 80% | 80% | 40% | 90% | 100% | 100% |  |  |  |  |  |  |  |  |
| Cc1c(Cc2ccccc2N(S(=O)(=O)C(F)(F)F)S(=O)(=O)C(F)(F)F)c(=O)on1Cc1cccs1 [Compound 1-1054] |  |  |  |  |  |  |  |  | 90% | 90% | 100% | 100% | 90% | 90% | 100% | 100% |
| COCCn1oc(=O)c(Cc2ccccc2N(S(=O)(=O)C(F)(F)F)S(=O)(=O)C(F)(F)F)c1C [Compound 1-996] | 90% | 70% | 70% | 80% | 90% | 90% | 80% | 80% |  |  |  |  |  |  |  |  |
